Data taken from PubChem BioAssay (NCI).
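These data come from cells grown in 96-well plates and exposed to compound for 48 hours at five concentrations. Here, GI50 denotes the concentration required for 50% inhibition of growth. TGI: concentration producing complete growth inhibition.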

Key:
Experiment in all cases: DTP human tumour cell line panel, 48 h
ACHN renal = test system: ACHN renal
HCT-116 colon = test system: HCT-116 colon
HT29 colon = test system: HT29 colon
K-562 leukemia = test system: K-562 leukemia
MCF7 breast = test system: MCF7 breast
NCI/ADR-RES ovarian = test system: NCI/ADR-RES ovarian
SK-MEL-2 melanoma = test system: SK-MEL-2 melanoma
SK-MEL-28 melanoma = test system: SK-MEL-28 melanoma
SK-OV-3 ovarian = test system: SK-OV-3 ovarian
UACC-257 melanoma = test system: UACC-257 melanoma

Compound | TGI (ACHN renal) [µM] | TGI (HCT-116 colon) [µM] | TGI (HT29 colon) [µM] | TGI (K-562 leukemia) [µM] | TGI (MCF7 breast) [µM] | TGI (NCI/ADR-RES ovarian) [µM] | TGI (SK-MEL-2 melanoma) [µM] | TGI (SK-MEL-28 melanoma) [µM] | TGI (SK-OV-3 ovarian) [µM] | TGI (UACC-257 melanoma) [µM] | GI50 (ACHN renal) [µM] | GI50 (HCT-116 colon) [µM] | GI50 (NCI/ADR-RES ovarian) [µM] | GI50 (SK-MEL-2 melanoma) [µM] | GI50 (SK-MEL-28 melanoma) [µM] | GI50 (SK-OV-3 ovarian) [µM] | GI50 (UACC-257 melanoma) [µM]
COCCOC(C)C(=O)C(O)S(=O)(=O)O (configuration not stated) | > 100 | > 100 | > 100 | > 100 | > 100 | > 100 | > 100 | > 100 | > 100 | > 100 |  |  |  |  |  |  | 
COc1cc(S(=O)(=O)Nc2ccc(-c3csc(N4C(=O)C(Cl)C4c4cccc(Oc5ccccc5)c4)n3)cc2)ccc1Cl (configuration not stated) | 57.1 | > 100 | > 100 | 91.2 | > 100 | > 100 | 76.7 | 79.8 | > 100 | > 100 |  |  |  |  |  |  | 
Oc1cc(O)c2c(c1)O[C@H](c1cc(O)c(O)c(O)c1)[C@@H](O)C2 | 48 | 33.2 |  | 38.2 | 35.2 | > 100 | 64.8 | > 100 | 74.7 | > 100 |  |  |  |  |  |  | 
CC(=O)Oc1c2c(c(OC(C)=O)c3c1n(C(C)=O)c1ccccc1n3C(C)=O)n(C(C)=O)c1ccccc1n2C(C)=O | 25.4 |  | 13 | > 100 |  |  | 24 | 16.8 | 50 | 13 |  |  |  |  |  |  | 
COc1cc(N)c2[nH]c3c(C)ccc(C)c3c2c1 | > 100 | > 100 | > 100 | > 100 |  |  | > 100 | > 100 |  | > 100 |  |  |  |  |  |  | 
COC(=O)c1ccccc1NC(=S)NN(C)C | > 100 | > 100 |  | > 100 | > 100 | > 100 | > 100 | > 100 | > 100 | > 100 |  |  |  |  |  |  | 
Cn1cc(-c2nc(-c3c[nH]c4ccncc34)cs2)c2ccccc21 | 2.96 | 3.04 |  |  |  | 4.02 | 3.51 | 3.14 | 3.23 | 3.55 | 1.6 | 1.61 | 1.99 | 1.8 | 1.71 | 1.59 | 1.96
CCCCOc1c(C(=O)O)cc(Br)cc1C(=O)O | > 100 | > 100 |  | > 100 | > 100 | > 100 | > 100 | > 100 | > 100 | > 100 |  |  |  |  |  |  | 
N=S(=O)(c1ccccc1)c1ccccc1 | > 100 | > 100 |  | > 100 |  |  | > 100 | > 100 | > 100 | > 100 |  |  |  |  |  |  | 
CCCCCCCCCCCCCCCCNCC(O)CN (configuration not stated) |  | 3.64 | 4.44 | 3.35 | 6.47 | 4.72 | 36.2 | 25.8 | 35.9 | 23.7 |  |  |  |  |  |  | 
Nc1ncnc2c1ncn2CCCC(c1ccccc1)P(=O)(O)O (configuration not stated) | > 100 | > 100 | > 100 |  |  |  | > 100 | > 100 | > 100 | > 100 |  |  |  |  |  |  | 
COC(=O)[C@H]1[C@@H](O)[C@@]2(O)c3c(OC)cc(OC)cc3O[C@@]2(c2ccc3c(c2)OCO3)[C@@H]1c1ccccc1 | 0.235 | 0.4 | 0.273 |  | 0.0618 | 0.241 | 0.45 |  | 1.54 | > 50 |  |  |  |  |  |  | 
CSc1c2c(C)n[nH]c2nn1-c1ccccc1 |  | > 100 | > 100 | > 100 | > 100 | > 100 | > 100 | > 100 | > 100 | > 100 |  |  |  |  |  |  | 
COc1ccc(OC)c(NC2=NCCO2)c1 | > 100 | > 100 | > 100 | > 100 | > 100 | > 100 | > 100 | > 100 |  | > 100 |  |  |  |  |  |  | 
N=c1n(CC(=O)NC23CC4CC(CC(C4)C2)C3)c2ccccc2n1CC(=O)NC12CC3CC(CC(C3)C1)C2 | 3.94 | 3.46 | 3.21 | 5.54 |  |  | 30.9 | 3.17 | 29.1 | 3.17 |  |  |  |  |  |  | 
CCCc1n[nH]c(=O)n1N1C(=O)C=CC1=O |  | > 100 |  | > 100 | > 100 |  | > 100 |  | > 100 | > 100 |  |  |  |  |  |  | 
CCn1c(-c2ccc(OC)cc2)nc2c1C(=O)c1ccccc1C2=O | > 100 | > 100 | > 100 | > 100 | > 100 | > 100 |  | > 100 | > 100 | > 100 |  |  |  |  |  |  | 
CCNC(=O)NNc1ncnc2c1c(-c1ccc(Cl)cc1)cn2-c1ccc(C)cc1 | 41.9 | 28.1 | 34 | 46.5 |  | 38.4 | 42.2 | 33.3 | 73.7 | 35.7 |  |  |  |  |  |  | 
Fc1ccc2[nH]cc(-c3nc(-c4c[nH]c5ccncc45)cs3)c2c1 | 2.97 |  |  |  |  |  | 3.75 | 3.33 | 3.22 | 3.58 | 1.61 |  |  | 1.91 | 1.9 | 1.65 | 1.91
C[N+](C)(C)CCOC(=O)/C=C/c1cnc[nH]1 |  | > 500 | > 500 | > 500 | > 500 | > 500 | > 500 | > 500 | > 500 | > 500 |  |  |  |  |  |  | 
CC(C(=O)NCCNC(=O)CCC(=O)N(C)O)C(=O)NCCNC(=O)CCC(=O)N(C)O | > 100 |  | > 100 | > 100 | > 100 | > 100 | > 100 | > 100 | > 100 | > 100 |  |  |  |  |  |  | 
O=C(NC12CC3CC(CC(C3)C1)C2)C(=O)c1c[nH]c2ccc(Br)cc12 | > 100 | 45.7 | 14.4 | 47.2 |  |  | > 100 | > 100 | 60.8 | > 100 |  |  |  |  |  |  | 
